In patent US20250206738A1, “WRN INHIBITORS” (Nimbus Wadjet, Inc., priority 2023, published 2025):
Where two headings read alike, the source gives them in different places.

Columns and labels:
[1] = biological target: T1, human Werner helicase (WRN, Uniprot Q14191, amino acids 517-1235 with L1074F point mutation; WRN-BV08) (Homo sapiens, UniProt Q14191, L1074F); assay: WRN (BV08) ADP-Glo assay; type: biochemical; conditions: WRN-BV08 (aa 517-1235, L1074F); read-out: ADP-Glo_hWRN_IC50
T1 construct: Uniprot Q14191, amino acids 517-1235 with L1074F point mutation; 8xHis (C, cleaved yes); TEV cleavage site (ENLYFQG) (C, cleaved yes); made in house; host or cells: Sf9 insect cells (baculovirus, pFastBac)
T1 sequence (Q14191 with tags, fused parts or gaps L1074F): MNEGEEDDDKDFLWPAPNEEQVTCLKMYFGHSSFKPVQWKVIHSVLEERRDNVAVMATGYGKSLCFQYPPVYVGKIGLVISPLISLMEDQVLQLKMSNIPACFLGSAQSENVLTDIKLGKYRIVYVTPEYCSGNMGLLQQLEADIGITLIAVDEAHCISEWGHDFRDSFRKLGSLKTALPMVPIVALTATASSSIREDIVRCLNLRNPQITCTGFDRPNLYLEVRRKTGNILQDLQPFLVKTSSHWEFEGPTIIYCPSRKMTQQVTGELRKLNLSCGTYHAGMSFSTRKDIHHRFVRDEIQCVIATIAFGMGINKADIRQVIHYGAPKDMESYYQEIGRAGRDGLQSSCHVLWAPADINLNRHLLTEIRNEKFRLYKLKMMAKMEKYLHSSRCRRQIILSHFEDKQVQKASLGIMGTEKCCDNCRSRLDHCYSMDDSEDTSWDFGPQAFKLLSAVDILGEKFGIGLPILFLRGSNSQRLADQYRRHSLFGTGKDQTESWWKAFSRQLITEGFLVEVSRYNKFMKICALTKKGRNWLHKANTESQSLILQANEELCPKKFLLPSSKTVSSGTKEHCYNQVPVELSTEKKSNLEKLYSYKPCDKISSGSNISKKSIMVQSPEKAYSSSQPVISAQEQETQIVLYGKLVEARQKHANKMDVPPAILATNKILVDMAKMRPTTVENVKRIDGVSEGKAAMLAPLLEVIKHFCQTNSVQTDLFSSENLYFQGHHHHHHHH
In short: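 WRN 517-1235 (L1074F, untagged, Sf9-expressed), 0.15 nM, preincubated with compound 15 min at 25 °C, then 60 min with […] and 0.1 nM DNA duplex in Bicine pH 7.5, 1 mM MgCl2, 1% DMSO. ADP-Glo luminescence; % inhibition vs NSC-617145 control, four-parameter IC50 fit.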

[2] = test system: p21 induction in HCT 116 cells; assay: p21 induction in cells (In-Cell Western, p21/GAPDH ratio); type: cell-based; conditions: 24 h compound incubation, read-out: P21_EC50
In short: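 HCT 116 cells treated 24 h at 37° C with 11-point, 2-fold dilutions starting typically at 10 μM, in duplicate. Fixed cells immunostained for p21 and GAPDH; 800/700 nm ratio normalised between DMSO and reference WRN inhibitor controls as percent activation. EC50 from non-linear regression.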

| IC50 [1] | EC50 ([2]; Homo sapiens, HCT-116, 24 h) | EC50 [2] | SMILES |
| --- | --- | --- | --- |
| 100 to 500 nM | > 5000 nM |  | CCc1c(N2CCN(C(=O)c3cnn(C)c3)CC2)c(=O)n2nc(-c3ccnc(OC)c3)nc2n1CC(=O)NC1CC2(C1)CC2F (stereo not shown) [I-247, 2-(5-ethyl-2-(2-methoxypyridin-4-yl)-6-(4-(1-methyl-1H-pyrazole-4-carbonyl)piperazin-1-yl)-7-oxo-[1,2,4]triazolo[1,5-a]pyrimidin-4(7H)-yl)-N-(1-fluorospiro[2.3]hexan-5-yl)acetamide] |
| 5 to 50 nM | > 5000 nM |  | CCc1c(N2CCN(C(=O)c3ncccc3C(=O)O)CC2)c(=O)c2nn(-c3ccnc(OC)c3)nc2n1CC(=O)NC12CC(C3CC3)(C1)C2 [I-216, 2-(4-(4-(2-((3-cyclopropylbicyclo[1.1.1]pentan-1-yl)amino)-2-oxoethyl)-5-ethyl-2-(2-methoxypyridin-4-yl)-7-oxo-4,7-dihydro-2H-[1,2,3]triazolo[4,5-b]pyridin-6-yl)piperazine-1-carbonyl)nicotinic acid] |
| 5 to 50 nM | 2000 to 5000 nM |  | CCc1c(N2CCN(C(=O)c3ncnc(C)c3O)CC2)c(=O)c2oc(-c3ccnc(OC)c3)nc2n1CC(=O)NC12CC(C(F)(F)F)(C1)C2 [I-17, 2-(5-ethyl-6-(4-(5-hydroxy-6-methylpyrimidine-4-carbonyl)piperazin-1-yl)-2-(2-methoxypyridin-4-yl)-7-oxooxazolo[4,5-b]pyridin-4(7H)-yl)-N-(3-(trifluoromethyl)bicyclo[1.1.1]pentan-1-yl)acetamide] |
| 100 to 500 nM | > 5000 nM |  | CCc1c(N2CCN(C(=O)c3cnn(C)c3)CC2)c(=O)n2nc(-c3ccnc(OC)c3)nc2n1CC(=O)N[C@@H]1C[C@H]1c1c(F)cccc1F (racemic) [I-244, rac-N-((1R,2S)-2-(2,6-difluorophenyl)cyclopropyl)-2-(5-ethyl-2-(2-methoxypyridin-4-yl)-6-(4-(1-methyl-1H-pyrazole-4-carbonyl)piperazin-1-yl)-7-oxo-[1,2,4]triazolo[1,5-a]pyrimidin-4(7H)-yl)acetamide] |
| 5 to 50 nM | 500 to 2000 nM |  | CCc1c(N2CCN(C(=O)c3c(OC)ncc(C)c3O)[C@H]3CC[C@@H]32)c(=O)c2nc(N(C)C)cnc2n1CC(=O)NC12CC(C3CC3)(C1)C2 [I-233, N-(3-cyclopropylbicyclo[1.1.1]pentan-1-yl)-2-(2-(dimethylamino)-6-ethyl-7-((1S,6S)-5-(4-hydroxy-2-methoxy-5-methylnicotinoyl)-2,5-diazabicyclo[4.2.0]octan-2-yl)-8-oxopyrido[2,3-b]pyrazin-5(8H)-yl)acetamide] |
| 5 to 50 nM | 2000 to 5000 nM |  | CCc1c(N2CCN(C(=O)c3c(O)ccc4ncoc34)CC2)c(=O)n2nc(N(C)C)nc2n1CC(=O)NC12CC(C(F)(F)F)(C1)C2 [I-22, 2-(2-(dimethylamino)-5-ethyl-6-(4-(6-hydroxybenzo[d]oxazole-7-carbonyl)piperazin-1-yl)-7-oxo-[1,2,4]triazolo[1,5-a]pyrimidin-4(7H)-yl)-N-(3-(trifluoromethyl)bicyclo[1.1.1]pentan-1-yl)acetamide] |
| 5 to 50 nM | 2000 to 5000 nM |  | CCc1c(N2CCN(C(=O)c3c(O)ccc4ncoc34)CC2)c(=O)n2nc(-c3ccnc(OC)c3)nc2n1CC(=O)NC12CCC(C(F)(F)F)(CC1)CC2 [I-45, 2-(5-ethyl-6-(4-(6-hydroxybenzo[d]oxazole-7-carbonyl)piperazin-1-yl)-2-(2-methoxypyridin-4-yl)-7-oxo-[1,2,4]triazolo[1,5-a]pyrimidin-4(7H)-yl)-N-(4-(trifluoromethyl)bicyclo[2.2.2]octan-1-yl)acetamide] |
| 100 to 500 nM | > 5000 nM |  | CCc1c(N2CCN(C(=O)c3ncnc(C)c3O)CC2)c(=O)n2nc(C3=CCOCC3)nc2n1CC(=O)NC12COC(C(F)(F)F)(C1)C2 [I-26, 2-(2-(3,6-dihydro-2H-pyran-4-yl)-5-ethyl-6-(4-(5-hydroxy-6-methylpyrimidine-4-carbonyl)piperazin-1-yl)-7-oxo-[1,2,4]triazolo[1,5-a]pyrimidin-4(7H)-yl)-N-(1-(trifluoromethyl)-2-oxabicyclo[2.1.1]hexan-4-yl)acetamide] |
| 5 to 50 nM | ≤ 500 nM |  | CCc1c(N2CCN(C(=O)c3ncnc(C)c3O)[C@H]3CC[C@@H]32)c(=O)n2c(=O)n(-c3ccnc(OC)c3)nc2n1CC(=O)NC12CC(C3CC3)(C1)C2 [I-209, N-(3-cyclopropylbicyclo[1.1.1]pentan-1-yl)-2-(7-ethyl-6-((1S,6S)-5-(5-hydroxy-6-methylpyrimidine-4-carbonyl)-2,5-diazabicyclo[4.2.0]octan-2-yl)-2-(2-methoxypyridin-4-yl)-3,5-dioxo-2,3-dihydro-[1,2,4]triazolo[4,3-a]pyrimidin-8(5H)-yl)acetamide] |
| 5 to 50 nM | 500 to 2000 nM |  | CCc1c(N2CCN(C(=O)c3c(O)ccc4ncoc34)CC2)c(=O)n2nc(N(C)C)nc2n1CC(=O)NC12CC(C(C)C)(C1)C2 [I-43, 2-(2-(dimethylamino)-5-ethyl-6-(4-(6-hydroxybenzo[d]oxazole-7-carbonyl)piperazin-1-yl)-7-oxo-[1,2,4]triazolo[1,5-a]pyrimidin-4(7H)-yl)-N-(3-isopropylbicyclo[1.1.1]pentan-1-yl)acetamide] |
| 5 to 50 nM | 500 to 2000 nM |  | CCc1c(N2CCN(C(=O)c3ncc4c(c3O)CCO4)CC2)c(=O)n2nc(C3=CCOCC3)nc2n1CC(=O)NC12CC(C3CC3)(C1)C2 [I-9, N-(3-cyclopropylbicyclo[1.1.1]pentan-1-yl)-2-(2-(3,6-dihydro-2H-pyran-4-yl)-5-ethyl-6-(4-(4-hydroxy-2,3-dihydrofuro[2,3-c]pyridine-5-carbonyl)piperazin-1-yl)-7-oxo-[1,2,4]triazolo[1,5-a]pyrimidin-4(7H)-yl)acetamide] |
| 5 to 50 nM |  | ≤ 500 nM | CCc1c(N2CCN(C(=O)c3c(OC)ncc(C4CCOC4)c3O)CC2)c(=O)c2nn(-c3ccnc(OC)c3)nc2n1CC(=O)NC12CC(C(C)C)(C1)C2 (single isomer, unassigned) [I-65] |
| 5 to 50 nM | ≤ 500 nM |  | CCc1c(N2CCN(C(=O)c3ncnc(C)c3O)[C@H]3CC[C@@H]32)c(=O)c2nn(C3=CCOC(C)C3)nc2n1CC(=O)NC12CC(C3CC3)(C1)C2 (single isomer, unassigned) [I-169] |
| 5 to 50 nM | > 5000 nM |  | CCc1c(N2CCN(C(=O)c3ncccc3C(=O)O)[C@H]3CC[C@@H]32)c(=O)c2nn(-c3ccnc(OC)c3)nc2n1CC(=O)NC12CC(C(C)C)(C1)C2 [I-202, 2-((1S,6S)-5-(5-ethyl-4-(2-((3-isopropylbicyclo[1.1.1]pentan-1-yl)amino)-2-oxoethyl)-2-(2-methoxypyridin-4-yl)-7-oxo-4,7-dihydro-2H-[1,2,3]triazolo[4,5-b]pyridin-6-yl)-2,5-diazabicyclo[4.2.0]octane-2-carbonyl)nicotinic acid] |
| 5 to 50 nM | 2000 to 5000 nM |  | CCc1c(N2CCN(C(=O)c3cccc4ncoc34)CC2)c(=O)n2nc(-c3ccnc(OC)c3)nc2n1CC(=O)NC12CC(C(F)(F)F)(C1)C2 [I-231, 2-(6-(4-(benzo[d]oxazole-7-carbonyl)piperazin-1-yl)-5-ethyl-2-(2-methoxypyridin-4-yl)-7-oxo-[1,2,4]triazolo[1,5-a]pyrimidin-4(7H)-yl)-N-(3-(trifluoromethyl)bicyclo[1.1.1]pentan-1-yl)acetamide] |
| 5 to 50 nM | > 5000 nM |  | CCc1c(N2CCN(C(=O)c3ncnc(C)c3O)[C@H]3CC[C@@H]32)c(=O)c2nc(N(C)C)cnc2n1CC(=O)NC1CC2(CCCC2)C1 [I-230, 2-(2-(dimethylamino)-6-ethyl-7-((1S,6S)-5-(5-hydroxy-6-methylpyrimidine-4-carbonyl)-2,5-diazabicyclo[4.2.0]octan-2-yl)-8-oxopyrido[2,3-b]pyrazin-5(8H)-yl)-N-(spiro[3.4]octan-2-yl)acetamide] |
| 100 to 500 nM | > 5000 nM |  | CCc1c(N2CCN(C(=O)c3cnn(C)c3)CC2)c(=O)n2nc(-c3ccnc(OC)c3)nc2n1CC(=O)NC1(C(O)c2ccccc2)CC1 (stereo not shown) [I-250, 2-(5-ethyl-2-(2-methoxypyridin-4-yl)-6-(4-(1-methyl-1H-pyrazole-4-carbonyl)piperazin-1-yl)-7-oxo-[1,2,4]triazolo[1,5-a]pyrimidin-4(7H)-yl)-N-(1-(hydroxy(phenyl)methyl)cyclopropyl)acetamide] |
| 5 to 50 nM |  | ≤ 500 nM | CCc1c(N2CCN(C(=O)c3ncnc(C)c3O)[C@H]3CC[C@@H]32)c(=O)c2nn(C3=CCOC(C)C3)nc2n1CC(=O)NC12CC(C3CC3)(C1)C2 (single isomer, unassigned) [I-170] |
| 5 to 50 nM | ≤ 500 nM |  | CCc1c(N2CCN(C(=O)c3c(OC)ncc(C)c3O)CC2)c(=O)n2nc(-c3ccnc(C)c3)nc2n1CC(=O)NC12CC(C(C)C)(C1)C2 [I-217, 2-(5-ethyl-6-(4-(4-hydroxy-2-methoxy-5-methylnicotinoyl)piperazin-1-yl)-2-(2-methylpyridin-4-yl)-7-oxo-[1,2,4]triazolo[1,5-a]pyrimidin-4(7H)-yl)-N-(3-isopropylbicyclo[1.1.1]pentan-1-yl)acetamide] |
| 5 to 50 nM | 2000 to 5000 nM |  | CCc1c(N2CCN(C(=O)c3ncnc(C)c3O)CC2)c(=O)n2nc(-c3ccnc(OC)c3)nc2n1CC(=O)NC12CC(C(F)(F)F)(C1)C2 [I-4, 2-(5-ethyl-6-(4-(5-hydroxy-6-methylpyrimidine-4-carbonyl)piperazin-1-yl)-2-(2-methoxypyridin-4-yl)-7-oxo-[1,2,4]triazolo[1,5-a]pyrimidin-4(7H)-yl)-N-(3-(trifluoromethyl)bicyclo[1.1.1]pentan-1-yl)acetamide] |
